27 compounds from patent US20200325505A1, “FILAMENTOUS FUNGI CAPABLE OF PRODUCING VERY LONG CHAIN FATTY ACIDS” (UT-Battelle, LLC, priority 2019, published 2020) can be followed below.

SMILES strings stand for the structures.

Data set [1] deals with Mortierella elongata AG77. The data set can be described thus: Carbon source utilisation in Biolog 96-well plates, formazan formation after tetrazolium addition. As to conditions: for Metabolized: Metabolized = more formazan formation than a control containing no carbon source, observed visually at 2 h, 24 h, 148 h; for Carbon sources that Mortierella elongata AG77 can metabolize: summary of Table 3. Format: cell-based. The essentials: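 Carbon- or nitrogen-free mineral medium (pH 5.5) was dispensed onto lyophilised carbon or nitrogen sources and inoculated with 3 mm mycelial plugs of M. elongata grown on PDA. After 24 h at 21 °C, tetrazolium chloride was added and formazan was scored visually at 2, 24 and 148 h against a no-carbon-source control.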

In data set [2] the test system is Mortierella elongata AG77. Description: Nitrogen source utilisation in Biolog 96-well plates, formazan formation after tetrazolium addition. The class given is cell-based. As to conditions: for Metabolized: Metabolized = more formazan formation than a control containing no nitrogen source, observed visually at 2 h, 24 h, 148 h; for Nitrogen sources that Mortierella elongata AG77 can metabolize: text summary of Table 4.

Setting [3] is: compound as carbon source, Toxic = less formazan formation than a control containing no carbon source.
[4] abbreviates: compound as nitrogen source, Toxic = less formazan formation than a control containing no nitrogen source.

Regarding `N=C(N)NCCC[C@H](N)C(=O)O` [L-Arginine], the Toxic result in data set [1] and in data set [2] was “no” each time. Besides, the results for the Metabolized result in data set [1] (compound as carbon source) and in data set [2] (compound as nitrogen source) were “yes” and “no”, respectively. Besides, in data set [1], the “Carbon sources that Mortierella elongata AG77 can metabolize” value is “can metabolize”.

With `NC(=O)C[C@H](N)C(=O)O` [L-Asparagine], the Toxic result in data set [1] is “yes”; in data set [2], “no”. The Metabolized entry in data set [1] (compound as carbon source) and in data set [2] (compound as nitrogen source) was “no” in each case.

With `N[C@@H](CC(=O)O)C(=O)O` [L-Aspartic Acid], the Toxic result in data set [1] and in data set [2] was “no” each time. For the same compound, the values for the Metabolized entry in data set [1] (compound as carbon source) and in data set [2] (compound as nitrogen source) were “yes” and “no”, respectively. Also, the “Carbon sources that Mortierella elongata AG77 can metabolize” value in data set [1] is listed as “can metabolize”.

As to `N[C@@H](CCC(=O)O)C(=O)O` [L-Glutamic Acid], the Metabolized entry in data set [1] (compound as carbon source) is on record as “no”; in data set [2] (compound as nitrogen source) it was “yes”. In addition, the Toxic entry in data set [1] (setting [3]) and in data set [2] (setting [4]) was “no” each time. Moreover, the “Nitrogen sources that Mortierella elongata AG77 can metabolize” value in data set [2] is listed as “can metabolize”.

As for `NC(=O)CC[C@H](N)C(=O)O` [L-Glutamine], the Toxic result is recorded as “yes” in data set [1] and “no” in data set [2]. Also, the results for the Metabolized entry in data set [1] (compound as carbon source) and in data set [2] (compound as nitrogen source) were “no” and “yes”, respectively. In addition, in data set [2], the “Nitrogen sources that Mortierella elongata AG77 can metabolize” value is given as “can metabolize”.

For `N[C@@H](Cc1c[nH]cn1)C(=O)O` [L-Histidine], the Toxic entry in data set [1] and in data set [2] was “no” each time. Moreover, the Metabolized entry was “no” in data set [1] (compound as carbon source) and “yes” in data set [2] (compound as nitrogen source). Besides, in data set [2], the “Nitrogen sources that Mortierella elongata AG77 can metabolize” value is “can metabolize”.

As to `N[C@@H](CCO)C(=O)O` [L-Homoserine], the Toxic result in data set [1] and in data set [2] was “no” in each case. The Metabolized result is reported as “no” in data set [1] (compound as carbon source) and “yes” in data set [2] (compound as nitrogen source). Besides, in data set [2], the “Nitrogen sources that Mortierella elongata AG77 can metabolize” value is given as “can metabolize”.

Take `CC[C@H](C)[C@H](N)C(=O)O` [L-Isoleucine]: the Toxic entry in data set [1] and in data set [2] was “no” each time. Moreover, the Metabolized entry in data set [1] (compound as carbon source) is given as “no”; in data set [2] (compound as nitrogen source), “yes”. For the same compound, the “Nitrogen sources that Mortierella elongata AG77 can metabolize” value in data set [2] is listed as “can metabolize”.

Consider `CC(C)C[C@H](N)C(=O)O` [L-Leucine], for which the Toxic entry in data set [1] and in data set [2] was “no” throughout. The Metabolized entry in data set [1] (compound as carbon source) and in data set [2] (compound as nitrogen source) was “no” in each case.

Turning to `NCCCC[C@H](N)C(=O)O` [L-Lysine], the Toxic entry in data set [1] and in data set [2] was “no” each time. Also, the Metabolized result in data set [1] (compound as carbon source) and in data set [2] (compound as nitrogen source) was “no” each time.

As to `CSCC[C@H](N)C(=O)O` [L-Methionine], the Toxic result in data set [1] and in data set [2] was “no” throughout. The Metabolized entry in data set [1] (compound as carbon source) and in data set [2] (compound as nitrogen source) was “no” throughout.

Regarding `N[C@@H](Cc1ccccc1)C(=O)O` [L-Phenylalanine], the Metabolized result is “yes” in data set [1] (compound as carbon source) and “no” in data set [2] (compound as nitrogen source). Further, the Toxic entry in data set [1] (setting [3]) and in data set [2] (setting [4]) was “no” in each case. In addition, the “Carbon sources that Mortierella elongata AG77 can metabolize” value in data set [1] is “can metabolize”.

As for `O=C(O)[C@@H]1CCCN1` [L-Proline], in data set [1], the Toxic result was “no” and the “Carbon sources that Mortierella elongata AG77 can metabolize” value is recorded as “can metabolize”. In addition, in data set [1] (compound as carbon source), the Metabolized result is “yes”. Further, in data set [2], the Toxic entry is “no” and the “Nitrogen sources that Mortierella elongata AG77 can metabolize” value is given as “can metabolize”. The Metabolized result in data set [2] (compound as nitrogen source) was “yes”.

Turning to `O=C1CC[C@@H](C(=O)O)N1` [L-Pyroglutamic Acid], the Toxic entry in data set [1] and in data set [2] was “no” throughout. In addition, the Metabolized entry in data set [1] (compound as carbon source) and in data set [2] (compound as nitrogen source) was “no” each time.

On to `N[C@@H](CO)C(=O)O` [L-Serine], for which the Toxic result in data set [1] and in data set [2] was “no” in each case. Moreover, the Metabolized entry in data set [1] (compound as carbon source) and in data set [2] (compound as nitrogen source) was “no” throughout.

For the compound `C[C@@H](O)[C@H](N)C(=O)O` [L-Threonine], the Toxic entry in data set [1] and in data set [2] was “no” each time. Moreover, the Metabolized result in data set [1] (compound as carbon source) is “yes”; in data set [2] (compound as nitrogen source), “no”. The “Carbon sources that Mortierella elongata AG77 can metabolize” value in data set [1] is “can metabolize”.

Take `CC(C)[C@H](N)C(=O)O` [L-Valine]: the Toxic result in data set [1] and in data set [2] was “no” in each case. The Metabolized result in data set [1] (compound as carbon source) and in data set [2] (compound as nitrogen source) was “no” throughout.

Take `CC(=O)N[C@H]1C(O)O[C@H](CO)[C@H](O)[C@@H]1O` (stereo partly drawn) [N-Acetyl-D-Galactosamine]: the Metabolized entry is “no” in data set [1] (compound as carbon source) and “yes” in data set [2] (compound as nitrogen source). In addition, the Toxic entry in data set [1] (setting [3]) and in data set [2] (setting [4]) was “no” in each case. Besides, in data set [2], the “Nitrogen sources that Mortierella elongata AG77 can metabolize” value is listed as “can metabolize”.

With `CC(=O)N[C@H]1C(O)O[C@H](CO)[C@@H](O)[C@@H]1O` (stereo partly drawn) [N-Acetyl-D-Glucosamine], the Metabolized result in data set [1] (compound as carbon source) and in data set [2] (compound as nitrogen source) was “yes” throughout. Also, the Toxic result in data set [1] (setting [3]) and in data set [2] (setting [4]) was “no” throughout. Moreover, the “Carbon sources that Mortierella elongata AG77 can metabolize” value in data set [1] is listed as “can metabolize”. Besides, the “Nitrogen sources that Mortierella elongata AG77 can metabolize” value in data set [2] is reported as “can metabolize”.

For `CC(=O)N[C@@H](CCC(=O)O)C(=O)O` [N-Acetyl-L-Glutamic Acid], the Toxic entry in data set [1] and in data set [2] was “no” throughout. For the same compound, the results for the Metabolized result in data set [1] (compound as carbon source) and in data set [2] (compound as nitrogen source) were “yes” and “no”, respectively. Moreover, in data set [1], the “Carbon sources that Mortierella elongata AG77 can metabolize” value is listed as “can metabolize”.

For the compound `NCCc1ccccc1` [Phenylethyl-amine], the Metabolized entry in data set [1] (compound as carbon source) and in data set [2] (compound as nitrogen source) was “no” each time. Also, the Toxic entry in data set [1] (setting [3]) and in data set [2] (setting [4]) was “no” each time.

For `NCCCCN` [Putrescine], the Toxic entry in data set [1] and in data set [2] was “no” in each case. Besides, the Metabolized result in data set [1] (compound as carbon source) is “yes”; in data set [2] (compound as nitrogen source) it was “no”. Also, in data set [1], the “Carbon sources that Mortierella elongata AG77 can metabolize” value is “can metabolize”.

Regarding `Cc1cn([C@H]2C[C@H](O)[C@@H](CO)O2)c(=O)[nH]c1=O` [Thymidine], the Toxic entry in data set [1] and in data set [2] was “no” in each case. Besides, the Metabolized entry in data set [1] (compound as carbon source) and in data set [2] (compound as nitrogen source) was “no” each time.

On to `NCCc1ccc(O)cc1` [Tyramine], for which the Toxic entry in data set [1] and in data set [2] was “no” throughout. Further, the Metabolized result in data set [1] (compound as carbon source) is recorded as “yes”; in data set [2] (compound as nitrogen source) it was “no”. Also, the “Carbon sources that Mortierella elongata AG77 can metabolize” value in data set [1] is listed as “can metabolize”.

On to `O=c1ccn([C@@H]2O[C@H](CO)[C@@H](O)[C@H]2O)c(=O)[nH]1` [Uridine], for which the Toxic result in data set [1] and in data set [2] was “no” in each case. The Metabolized entry in data set [1] (compound as carbon source) and in data set [2] (compound as nitrogen source) was “no” in each case.

On to `NCCCC(=O)O` [γ-Amino Butyric Acid], for which the Toxic result in data set [1] and in data set [2] was “no” each time. The values for the Metabolized entry in data set [1] (compound as carbon source) and in data set [2] (compound as nitrogen source) were “no” and “yes”, respectively. In addition, the “Nitrogen sources that Mortierella elongata AG77 can metabolize” value in data set [2] is reported as “can metabolize”.

Regarding `NCCCCC(=O)O` [δ-Amino Valeric Acid], the Toxic result in data set [1] and in data set [2] was “no” each time. In addition, the Metabolized result in data set [1] (compound as carbon source) and in data set [2] (compound as nitrogen source) was “no” each time.
